Source: patent US10118935B2, “Melampomagnolide B dimers” (priority 2014, dated 2018)

Tests used:
[1] = test system: HOP-62; test: NCI 60 cell line five dose, Non-Small Cell Lung Cancer; type: cell-based, human
[2] = test system: IGROV1; test: NCI 60 cell line five dose, Ovarian Cancer; type: cell-based, human
[3] = test system: CCRF-CEM; test: NCI 60 cell line five dose, Leukemia
[4] = test system: MOLT-4; test: NCI 60 cell line five dose, Leukemia
[5] = test system: RPMI-8226; test: NCI 60 cell line five dose, Leukemia
[6] = test system: MDA-MB-435; test: NCI 60 cell line five dose, Melanoma
[7] = test system: SK-MEL-5; test: NCI 60 cell line five dose, Melanoma
[8] = test system: KM12; test: NCI 60 cell line five dose, Colon Cancer
[9] = test system: ACHN; test: NCI 60 cell line five dose, Renal Cancer
[10] = test system: MDA-MB-231/ATCC; test: NCI 60 cell line five dose, Breast Cancer
[11] = test system: OVCAR-5; test: NCI 60 cell line five dose, Ovarian Cancer
[12] = test system: OVCAR-8; test: NCI 60 cell line five dose, Ovarian Cancer
[13] = read-out: LC50 (the source's name)

## C=C1C(=O)O[C@H]2[C@H]1CC/C(COC(=O)NCCCCNC(=O)OC/C1=C/CC[C@@]3(C)O[C@H]3[C@H]3OC(=O)C(=C)[C@@H]3CC1)=C\CC[C@@]1(C)O[C@@H]21 [JVM 3-54, bis(((1aR,7aS,10aS,10bS,E)-1a-Methyl-8-methylene-9-oxo-1a,2,3,6,7,7a,8,9,10a,10b-decahydrooxireno[2′,3′:9,10]cyclodeca[1,2-b]furan-5-yl)methyl)butane-1,4-diyldicarbamate]
[1]
  GI50: 3.84 µM
  TGI: 14 µM
[1]; Log10 Concentration −4.0
  Percent Growth: −82%
[1]; Log10 Concentration −5.0
  Percent Growth: 14%
[1]; Log10 Concentration −6.0
  Percent Growth: 101%
[1]; Log10 Concentration −7.0
  Percent Growth: 95%
[1]; Log10 Concentration −8.0
  Percent Growth: 94%
[1]; [13]
  CC50: 46.1 µM
[2]
  GI50: 3.32 µM
  TGI: 12.4 µM
[2]; Log10 Concentration −4.0
  Percent Growth: −76%
[2]; Log10 Concentration −5.0
  Percent Growth: 8%
[2]; Log10 Concentration −6.0
  Percent Growth: 96%
[2]; Log10 Concentration −7.0
  Percent Growth: 104%
[2]; Log10 Concentration −8.0
  Percent Growth: 101%
[2]; [13]
  CC50: 48.6 µM
[3]
  GI50: 0.272 µM
  TGI: 0.845 µM
[3]; Log10 Concentration −4.0
  Percent Growth: −50%
[3]; Log10 Concentration −5.0
  Percent Growth: −46%
[3]; Log10 Concentration −6.0
  Percent Growth: −7%
[3]; Log10 Concentration −7.0
  Percent Growth: 94%
[3]; Log10 Concentration −8.0
  Percent Growth: 98%
[3]; read-out: LC50
  CC50: > 100 µM
[4]
  GI50: 1.47 µM
  TGI: 4.15 µM
[4]; Log10 Concentration −4.0
  Percent Growth: −41%
[4]; Log10 Concentration −5.0
  Percent Growth: −42%
[4]; Log10 Concentration −6.0
  Percent Growth: 68%
[4]; Log10 Concentration −7.0
  Percent Growth: 98%
[4]; Log10 Concentration −8.0
  Percent Growth: 98%
[4]; read-out: LC50
  CC50: > 100 µM
[5]
  GI50: 0.547 µM
  TGI: 3.08 µM
[5]; Log10 Concentration −4.0
  Percent Growth: −42%
[5]; Log10 Concentration −5.0
  Percent Growth: −33%
[5]; Log10 Concentration −6.0
  Percent Growth: 31%
[5]; Log10 Concentration −7.0
  Percent Growth: 102%
[5]; Log10 Concentration −8.0
  Percent Growth: 101%
[5]; read-out: LC50
  CC50: > 100 µM
[6]
  GI50: 1.24 µM
  TGI: 3.41 µM
[6]; Log10 Concentration −4.0
  Percent Growth: −97%
[6]; Log10 Concentration −5.0
  Percent Growth: −53%
[6]; Log10 Concentration −6.0
  Percent Growth: 60%
[6]; Log10 Concentration −7.0
  Percent Growth: 82%
[6]; Log10 Concentration −8.0
  Percent Growth: 100%
[6]; read-out: LC50
  CC50: 9.42 µM
[7]
  GI50: 3.33 µM
  TGI: 11.8 µM
[7]; Log10 Concentration −4.0
  Percent Growth: −85%
[7]; Log10 Concentration −5.0
  Percent Growth: 7%
[7]; Log10 Concentration −6.0
  Percent Growth: 98%
[7]; Log10 Concentration −7.0
  Percent Growth: 100%
[7]; Log10 Concentration −8.0
  Percent Growth: 97%
[7]; read-out: LC50, SK-MEL-6
  CC50: 41.4 µM
[8]
  GI50: 3.18 µM
  TGI: 10.5 µM
[8]; Log10 Concentration −4.0
  Percent Growth: −80%
[8]; Log10 Concentration −5.0
  Percent Growth: 2%
[8]; Log10 Concentration −6.0
  Percent Growth: 99%
[8]; Log10 Concentration −7.0
  Percent Growth: 100%
[8]; Log10 Concentration −8.0
  Percent Growth: 102%
[8]; read-out: LC50
  CC50: 43.3 µM
[9]
  GI50: 3.44 µM
  TGI: 12.9 µM
[9]; Log10 Concentration −4.0
  Percent Growth: −91%
[9]; Log10 Concentration −5.0
  Percent Growth: 11%
[9]; Log10 Concentration −6.0
  Percent Growth: 95%
[9]; Log10 Concentration −7.0
  Percent Growth: 97%
[9]; Log10 Concentration −8.0
  Percent Growth: 100%
[9]; read-out: LC50
  CC50: 39.8 µM
[10]
  GI50: 1.53 µM
  TGI: 3.24 µM
[10]; Log10 Concentration −4.0
  Percent Growth: −85%
[10]; Log10 Concentration −5.0
  Percent Growth: −76%
[10]; Log10 Concentration −6.0
  Percent Growth: 79%
[10]; Log10 Concentration −7.0
  Percent Growth: 104%
[10]; Log10 Concentration −8.0
  Percent Growth: 103%
[11]
  GI50: 1.75 µM
  TGI: 3.69 µM
[11]; Log10 Concentration −4.0
  Percent Growth: −72%
[11]; Log10 Concentration −5.0
  Percent Growth: −67%
[11]; Log10 Concentration −6.0
  Percent Growth: 87%
[11]; Log10 Concentration −7.0
  Percent Growth: 92%
[11]; Log10 Concentration −8.0
  Percent Growth: 95%
[11]; read-out: LC50
  CC50: 7.79 µM
[12]
  GI50: 2.18 µM
  TGI: 8.26 µM
[12]; Log10 Concentration −4.0
  Percent Growth: −78%
[12]; Log10 Concentration −5.0
  Percent Growth: −7%
[12]; Log10 Concentration −6.0
  Percent Growth: 79%
[12]; Log10 Concentration −7.0
  Percent Growth: 99%
[12]; Log10 Concentration −8.0
  Percent Growth: 99%
[12]; read-out: LC50
  CC50: 40.2 µM
